Laboratory results as given in ChEMBL document CHEMBL1138669, “Dipeptidyl peptidase IV inhibitors for the treatment of diabetes” (J Med Chem, 2004).

Test: Half life was determined
Assay type: ADME
Settings: rat

Structure (SMILES): N#Cc1ccc(NCCNCC(=O)N2CCC[C@H]2C#N)nc1
- half-life: 50 min
